Assays:
[1] = system: (G4C2)4 RNA G-Q, dual-labelled (RNA, G4) GGGGCCGGGGCCGGGGCCGGGGCC; assay: FRET melting; details: Na+ (10 mM sodium cacodylate); pH 7.35; compound 2 μM; screening threshold, exact value only in figure
[2] = system: (G4C2)4 RNA (CD) (RNA, G4) GGGGCCGGGGCCGGGGCCGGGGCC; assay: CD, induced signal 350–550 nm; details: Na+ (10 mM sodium cacodylate); pH 7.35; RNA 1 μM; compound 2 μM

Row | ΔTm [1] [°C] | binding [2] | SMILES
1 | > 13 | yes | N=C(N)c1ccc(-c2ccc(-c3ccc(-c4ccc(C(=N)N)cn4)o3)o2)nc1
2 | > 13 | yes | N=C(N)c1ccc(-c2ccc(-c3ccc(-c4ccc(C(=N)N)cn4)[se]3)[se]2)nc1
3 | > 13 | yes | N=C(N)c1ccc(-c2ccc(-c3ccc(-c4ccc(C(=N)N)cn4)s3)s2)nc1

From article PMC5760849 (2017)
